Test results published in patent US11629171B2, “Beta-hairpin peptidomimetics” (POLYPHOR AG, priority 2017, dated 2023).
≈ marks a conversion by molar mass, not a printed value. Where a SMILES comes first, the peptide text is derived from it. Bridges are numbered along the chain shown (N, C = ends). Roman numbers before positions name the chains, in order. [ ]: non-standard residue; d: D form. Tle = CC(C)(C)[C@H](N)C(=O)O; dDab = NCC[C@@H](N)C(=O)O; hSer = N[C@@H](CCO)C(=O)O; Orn = NCCC[C@H](N)C(=O)O; Dab = NCC[C@H](N)C(=O)O; Dap = NC[C@H](N)C(=O)O

Legend:
Assay type in all cases: cell-based
[1] = test system: Acinetobacter baumannii 872842; conditions: 872842
Experimental: (§1) The in vitro antimicrobial activities of the peptides were determined in 96-well plates (Greiner, polystyrene) by the standard CLSI broth microdilution method (Clinical and Laboratory Standards Institute 2014. Performance standards for antimicrobial susceptibility testing, 24th informational supplement. Approved standard CLSI M100-S24; Clinical and Laboratory Standards Institute, Wayne, Pa.). The following microorganisms were used to determine antibiotic activity of the peptides: Escherichia coli ATCC 25922, Klebsiella pneumoniae SSI #3010^a), Acinetobacter baumannii DSM 30008, Pseudomonas aeruginosa ATCC 27853 and the clinical isolates Escherichia coli 926415^b), Klebsiella pneumoniae 968733^b), Acinetobacter baumannii 872842^b), Enterobacter cloacae 848840^b) and Escherichia coli MCR-1 Af45^c). Before preparation of inocula, Escherichia coli MCR-1 Af45 was subcultured on Mueller-Hinton II (MH-cation adjusted) agar containing 2 μg/mL colistin. ^a) Obtained from Statens Serum Institut (SSI), Copenhagen, Denmark^b) Obtained from International Health Management Associates, Inc. (IHMA Europe Sàrl), Epalinges, Switzerland^c) Obtained from Prof. Patrice Nordmann, University of Fribourg, Fribourg, Switzerland
(§2) Inocula of the microorganisms were diluted into Mueller-Hinton II (MH-cation adjusted) broth and compared with a 0.5 McFarland standard to give appr. 10^6 colony forming units (CFU)/mL. Aliquots (90 μL) of inoculum were added to 10 μL of MH-II broth+P-80 (Polysorbate 80, 0.002% final concentration, v/v) containing the peptide in serial two-fold dilutions. Antimicrobial activities of the peptides were expressed as the minimal inhibitory concentration (MIC) in μg/mL at which no visible growth was observed after 18-20 hours of incubation at 35° C.

[2] = test system: Acinetobacter baumannii DSM 30008; conditions: DSM 30008
Experimental: as §1, §2

[3] = test system: Enterobacter cloacae 848840; conditions: 848840
Experimental: as §1, §2

Escherichia coli 926415 = conditions: 926415
Experimental: as §1, §2

[4] = test system: Escherichia coli ATCC 25922; conditions: ATCC 25922
Experimental: as §1, §2

[5] = test system: Klebsiella pneumoniae 968733; conditions: 968733
Experimental: as §1, §2

[6] = test system: Klebsiella pneumoniae SSI #3010; conditions: SSI #3010
Experimental: as §1, §2

[7] = test system: Pseudomonas aeruginosa ATCC 27853; conditions: ATCC 27853
Experimental: as §1, §2

[8] = test system: human red blood cells (hRBC); test: Hemolysis; conditions: red cells of human, 1 h, 200
Summary of the method: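 Percent hemolysis relative to 2% Triton X-100 (100%) and PBS/10% water (0%), from blank-corrected OD540 of diluted supernatants. Peptides tested at 200 μg/mL against 20% (v/v) washed human erythrocytes, 1 h, 37° C, shaking at 300 rpm.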

Row | Structure (SMILES) | MIC [1] | MIC [2] | MIC [3] | MIC (Escherichia coli 926415) | MIC [4] | MIC [5] | MIC [6] | MIC [7] | Hemolysis at 200 μg/mL [8] | Acinetobacter baumannii DSM 30008 MIC [2] | Escherichia coli ATCC 25922 MIC [4] | Klebsiella pneumoniae SSI #3010 MIC [6] | Pseudomonas aeruginosa ATCC 27853 MIC [7]
1 | CC(=O)N[C@H](C(=O)N[C@H]1CCCNC(=O)[C@@H]([C@H](C)O)NC(=O)[C@H](C(C)(C)C)NC(=O)[C@H](CO)NC(=O)[C@H](Cc2c[nH]c3ccccc23)NC(=O)[C@H](CCO)NC(=O)[C@@H](CCN)NC(=O)[C@H](CCC(=O)N[C@@H](CCN)C(=O)N[C@H](C(=O)N[C@@H](CN)C(=O)N[C@H]2CCNC(=O)[C@H]([C@@H](C)O)NC(=O)[C@H](CCN)NC(=O)[C@H](CCN)NC(=O)[C@H](CC(C)C)NC(=O)[C@@H](CC(C)C)NC(=O)[C@H](CCN)NC2=O)[C@@H](C)O)NC(=O)[C@H](CO)NC(=O)[C@H](Cc2ccc(O)cc2)NC1=O)C(C)C [Ex. 18] (I: Ac-V[Orn]YSE[dDab][hSer]WS[Tle][dT] / II: [Dab]T[Dap][Dab][Dab][dL]L[Dab][Dab]T; lactam I:2-I:C, II:4-II:C; amide I:5-II:N) | 0.25 µg/mL (≈ 0.108 µM) | 0.0625 µg/mL (≈ 0.0269 µM) | 0.125 µg/mL (≈ 0.0539 µM) | 0.25 µg/mL (≈ 0.108 µM) | 0.0625 µg/mL (≈ 0.0269 µM) | 0.5 µg/mL (≈ 0.215 µM) | 0.125 µg/mL (≈ 0.0539 µM) | 0.25 µg/mL (≈ 0.108 µM) | 1% |  |  |  | 
2 | CC(=O)N[C@H](C(=O)N[C@H]1CSSC[C@@H](C(=O)N[C@@H](CO)C(=O)N[C@@H](CC(N)=O)C(N)=O)NC(=O)[C@H](C(C)C)NC(=O)[C@H](CO)NC(=O)[C@H](Cc2c[nH]c3ccccc23)NC(=O)[C@H](CCN)NC(=O)[C@@H](CCN)NC(=O)[C@H](CCC(=O)N[C@@H](CCN)C(=O)N[C@H](C(=O)N[C@@H](CN)C(=O)N[C@H]2CCNC(=O)[C@H]([C@@H](C)O)NC(=O)[C@H](CCN)NC(=O)[C@H](CCN)NC(=O)[C@H](CC(C)C)NC(=O)[C@@H](CC(C)C)NC(=O)[C@H](CCN)NC2=O)[C@@H](C)O)NC(=O)[C@H](CO)NC(=O)[C@H](Cc2ccc(O)cc2)NC1=O)C(C)C [Ex. 373] (I: Ac-VCYSE[dDab][Dab]WSVCSN-NH2 / II: [Dab]T[Dap][Dab][Dab][dL]L[Dab][Dab]T; disulfide I:2-I:11; amide I:5-II:N; lactam II:4-II:C) | 0.0625 µg/mL (≈ 0.0249 µM) |  | 0.25 µg/mL (≈ 0.0995 µM) | 0.125 µg/mL (≈ 0.0497 µM) |  | 0.125 µg/mL (≈ 0.0497 µM) |  |  | <1% | 0.03125 µg/mL | 0.0625 µg/mL | 0.0625 µg/mL | 0.0625 µg/mL
3 | CC(=O)N[C@H](C(=O)N[C@@H](CN)C(=O)N[C@@H](Cc1ccc(O)cc1)C(=O)N[C@H]1CSSC[C@@H](C(=O)N[C@H](C(=O)N[C@@H](C)C(=O)N[C@@H](CO)C(N)=O)C(C)(C)C)NC(=O)[C@H](Cc2c[nH]c3ccccc23)NC(=O)[C@H]([C@@H](C)O)NC(=O)[C@@H](CCN)NC(=O)[C@H](CCC(=O)N[C@@H](CCN)C(=O)N[C@H](C(=O)N[C@@H](CCN)C(=O)N[C@H]2CCNC(=O)[C@H]([C@@H](C)O)NC(=O)[C@H](CCN)NC(=O)[C@H](CCN)NC(=O)[C@H](CC(C)C)NC(=O)[C@@H](CC(C)C)NC(=O)[C@H](CCN)NC2=O)[C@@H](C)O)NC1=O)C(C)C [Ex. 179] (I: Ac-V[Dap]YCE[dDab]TWC[Tle]AS-NH2 / II: [Dab]T[Dab][Dab][Dab][dL]L[Dab][Dab]T; disulfide I:4-I:9; amide I:5-II:N; lactam II:4-II:C) | 0.25 µg/mL (≈ 0.104 µM) | 0.0625 µg/mL (≈ 0.0259 µM) | 0.5 µg/mL (≈ 0.207 µM) | 0.5 µg/mL (≈ 0.207 µM) | 0.125 µg/mL (≈ 0.0518 µM) | 4 µg/mL (≈ 1.66 µM) | 0.25 µg/mL (≈ 0.104 µM) | 0.25 µg/mL (≈ 0.104 µM) | <1% |  |  |  | 
4 | CC[C@H](C)[C@@H]1NC(=O)[C@H](CO)NC(=O)[C@H](Cc2c[nH]c3ccccc23)NC(=O)[C@H](CO)NC(=O)[C@@H](CCN)NC(=O)[C@H](CCC(=O)N[C@@H](CCN)C(=O)N[C@H](C(=O)N[C@@H](CN)C(=O)N[C@H]2CCNC(=O)[C@H]([C@@H](C)O)NC(=O)[C@H](CCN)NC(=O)[C@H](CCN)NC(=O)[C@H](CC(C)C)NC(=O)[C@@H](CC(C)C)NC(=O)[C@H](CCN)NC2=O)[C@@H](C)O)NC(=O)[C@H](CCN)NC(=O)[C@H](Cc2ccc(O)cc2)NC(=O)[C@@H](NC(=O)[C@@H](NC(C)=O)C(C)C)CCNC(=O)C[C@@H](C(=O)N[C@@H](CO)C(N)=O)NC1=O [Ex. 323] (I: Ac-V[Dab]Y[Dab]E[dDab]SWSIDS-NH2 / II: [Dab]T[Dap][Dab][Dab][dL]L[Dab][Dab]T; lactam I:2-I:11, II:4-II:C; amide I:5-II:N) | 0.0625 µg/mL (≈ 0.026 µM) |  | 0.125 µg/mL (≈ 0.052 µM) | 0.25 µg/mL (≈ 0.104 µM) |  | 0.5 µg/mL (≈ 0.208 µM) |  |  | <1% | 0.0625 µg/mL | 0.0625 µg/mL | 0.125 µg/mL | 0.125 µg/mL
